In ChEMBL document CHEMBL1127637, “Antiplatelet agents based on cyclooxygenase inhibition without ulcerogenesis. Evaluation and synthesis of 4,5-bis(4-methoxyphenyl)-2-substituted-thiazoles” (J Med Chem, 1994):
pEC50, pIC50: −log10 of the molar value.

Tests used:
Type in all cases: functional
[1] = system: Cavia porcellus; assay: Inhibitory effect on platelet aggregation induced by Arachidonic acid (AA) in guinea pigs ex vivo at a dose of 3.2 mg/Kg after 6 hr of oral administration
[2] = system: Cavia porcellus; assay: Inhibitory effect on platelet aggregation induced by Collagen in guinea pigs ex vivo at a dose of 3.2 mg/Kg after 6 hr of oral administration
[3] = species: Oryctolagus cuniculus; assay: In vitro antiplatelet activity against arachidonic acid induced malondialdehyde production
[4] = species: Oryctolagus cuniculus; assay: Inhibitory activity on the MDA production at 0.1 uM
[5] = species: Rattus norvegicus; assay: In vitro vasodilatory activity in isolated rat aorta; settings: read-out: ED50 (the source's name)
[6] = system: Cavia porcellus; assay: Inhibitory effect on platelet aggregation induced by Arachidonic acid (AA) in guinea pigs ex vivo at a dose of 1 mg/Kg after 1 hr of oral administration
[7] = system: Cavia porcellus; assay: Inhibitory effect on platelet aggregation induced by Arachidonic acid (AA) in guinea pigs ex vivo at a dose of 3.2 mg/Kg after 1 hr of oral administration
[8] = system: Cavia porcellus; assay: Inhibitory effect on platelet aggregation induced by Collagen in guinea pigs ex vivo at a dose of 1 mg/Kg after 1 hr of oral administration
[9] = system: Cavia porcellus; assay: Inhibitory effect on platelet aggregation induced by Collagen in guinea pigs ex vivo at a dose of 3.2 mg/Kg after 1 hr of oral administration
[10] = system: Cavia porcellus; assay: Inhibitory effect on platelet aggregation induced by Arachidonic acid (AA) in guinea pigs ex vivo at a dose of 1 mg/Kg after 6 hr of oral administration
[11] = system: Cavia porcellus; assay: Inhibitory effect on platelet aggregation induced by Collagen in guinea pigs ex vivo at a dose of 1 mg/Kg after 6 hr of oral administration
[12] = species: Oryctolagus cuniculus; assay: Inhibitory activity on the MDA production at 0.01 uM
[13] = system: Rattus norvegicus; assay: Compound was evaluated for collagen-induced platelet aggregation in rat ex vivo at the dose of 32 mg/Kg
[14] = system: Rattus norvegicus; assay: Induction of acute stomach lesion at a dose of 10 mg/Kg
[15] = system: Rattus norvegicus; assay: Induction of acute stomach lesion at a dose of 100 mg/Kg
[16] = system: Rattus norvegicus; assay: Induction of acute stomach lesion at a dose of 32 mg/Kg
[17] = system: Rattus norvegicus; assay: Induction of acute stomach lesion at a dose of 320 mg/Kg
[18] = system: Rattus norvegicus; assay: Induction of acute stomach lesion at a dose of 100 mg/Kg was determined in 5 animals
[19] = system: Rattus norvegicus; assay: Induction of acute stomach lesion at a dose of 32 mg/Kg was determined in 5 animals
[20] = system: Cavia porcellus; assay: ccInhibitory effect on platelet aggregation induced by Arachidonic acid (AA) in guinea pigs ex vivo at a dose of 3.2 mg/Kg after 6 hr of oral administration
[21] = system: Cavia porcellus; assay: Inhibitory effect on platelet aggregation induced by Arachidonic acid (AA) in guinea pigs ex vivo at a dose of 1 mg/kg after 1 hr of oral administration
[22] = system: Cavia porcellus; assay: Inhibitory effect on platelet aggregation induced by Arachidonic acid in guinea pigs ex vivo at a dose of 3.2 mg/Kg after 1 hr of oral administration

SMILES: COc1ccc(-c2nc(C(=O)N(C)C)sc2-c2ccc(OC)cc2)cc1
- inhibition in vivo at 3.2 mg/kg [1]: 89%
- inhibition in vivo at 3.2 mg/kg [2]: 4.1%
- pIC50 [3]: > 7.00
- Inhibition [4]: 51.4%

SMILES: CNC(=O)NCc1nc(-c2ccc(OC)cc2)c(-c2ccc(OC)cc2)s1
- pIC50 [3]: 7.66
- pEC50 [5]: 4.82

SMILES: COc1ccc(-c2nc(/N=C(\N)N(C)C)sc2-c2ccc(OC)cc2)cc1
- Inhibition % [6]: 48.5%
- Inhibition % [7]: 100%
- Inhibition % [8]: 33.1%
- Inhibition % [9]: 100%
- Inhibition % [1]: 100%
- Inhibition % [2]: 98%
- pIC50 [3]: 7.43

SMILES: COc1ccc(-c2nc(CN)sc2-c2ccc(OC)cc2)cc1
- pIC50 [3]: < 7.00
- pEC50 [5]: 5.11

SMILES: COc1ccc(-c2nc(C(=O)N3CCN(C(=O)NC(C)C)CC3)sc2-c2ccc(OC)cc2)cc1
- pIC50 [3]: < 6.00
- pEC50 [5]: 4.82

SMILES: COc1ccc(-c2nc(C(=O)N3CCCCC3CCO)sc2-c2ccc(OC)cc2)cc1 (stereo unspecified)
- Inhibition % [1]: 100%
- Inhibition % [2]: 100%
- pIC50 [3]: 7.35
- pEC50 [5]: 5.17

SMILES: COc1ccc(-c2nc(C(=O)N=C(N)N)sc2-c2ccc(OC)cc2)cc1
- pIC50 [3]: < 7.00
- pEC50 [5]: < 4.00

SMILES: COc1ccc(-c2nc(C(N)=O)sc2-c2ccc(OC)cc2)cc1
- pIC50 [3]: < 6.00

SMILES: COc1ccc(-c2nc(CN(C)C)sc2-c2ccc(OC)cc2)cc1
- Inhibition % [7]: 100%
- Inhibition % [9]: 100%
- Inhibition % [1]: 0%
- Inhibition % [2]: 0%
- pIC50 [3]: 7.02
- pEC50 [5]: 5.08

SMILES: COc1ccc(-c2nc(C(=O)N3CCCN(C)CC3)sc2-c2ccc(OC)cc2)cc1
- pIC50 [3]: < 7.00
- pEC50 [5]: 5.37

SMILES: COc1ccc(-c2nc(/N=C(\N)NC3CCCCC3)sc2-c2ccc(OC)cc2)cc1
- pIC50 [3]: < 6.00
- pEC50 [5]: < 4.00

SMILES: COc1ccc(-c2nc(C(=O)N3CCCCC3)sc2-c2ccc(OC)cc2)cc1
- pIC50 [3]: < 6.00
- pEC50 [5]: 4.96

SMILES: CCOC(=O)CC(c1nc(-c2ccc(OC)cc2)c(-c2ccc(OC)cc2)s1)N1CCN(C)CC1 (stereo unspecified)
- pIC50 [3]: < 6.00
- pEC50 [5]: 5.59

SMILES: COc1ccc(-c2nc(C3=NNC(=O)CC3)sc2-c2ccc(OC)cc2)cc1
- pIC50 [3]: < 6.00

SMILES: COc1ccc(-c2nc(C(=O)NCCN3CCOCC3)sc2-c2ccc(OC)cc2)cc1
- pIC50 [3]: < 6.00
- pEC50 [5]: 5.06

SMILES: COc1ccc(-c2nc(CNC(=O)CSC)sc2-c2ccc(OC)cc2)cc1
- inhibition in vivo at 1 mg/kg [10]: -3.9%
- inhibition in vivo at 1 mg/kg [11]: -13.3%
- pIC50 [3]: > 7.00
- Inhibition [4]: 73.3%
- pEC50 [5]: 5.22

SMILES: COc1ccc(-c2nc(C(=O)N3CCNC(CCO)C3)sc2-c2ccc(OC)cc2)cc1 (stereo unspecified)
- pIC50 [3]: < 6.00
- pEC50 [5]: 5.02

SMILES: COc1ccc(-c2nc(CNC(=O)c3cccnc3)sc2-c2ccc(OC)cc2)cc1
- Inhibition % [1]: 40.3%
- Inhibition % [2]: 37.4%
- pIC50 [3]: 7.60

SMILES: COc1ccc(-c2nc(N3CCN(C)CC3)sc2-c2ccc(OC)cc2)cc1
- inhibition in vivo at 1 mg/kg [10]: 60.9%
- inhibition in vivo at 1 mg/kg [11]: 65.4%
- pIC50 [3]: 7.41
- pEC50 [5]: 5.28

SMILES: COc1ccc(-c2nc(C(=O)N3CCOCC3)sc2-c2ccc(OC)cc2)cc1
- pIC50 [3]: > 8.00
- Inhibition [12]: 74.8%
- pEC50 [5]: > 4.00

SMILES: COc1ccc(-c2nc(/C=C/C(=O)N3CCN(C)CC3)sc2-c2ccc(OC)cc2)cc1
- pIC50 [3]: < 6.00
- pEC50 [5]: 4.70

SMILES: COc1ccc(-c2nc(CNC(C)=O)sc2-c2ccc(OC)cc2)cc1
- Inhibition % [10]: 60.9%
- Inhibition % [11]: 26.6%
- pIC50 [3]: 7.82
- pEC50 [5]: 5.09

SMILES: COc1ccc(-c2nc(/N=C(\N)n3ccnc3)sc2-c2ccc(OC)cc2)cc1
- pIC50 [3]: < 7.00

SMILES: COc1ccc(-c2nc(/N=C(\N)NC(C)C)sc2-c2ccc(OC)cc2)cc1
- pIC50 [3]: < 7.00
- pEC50 [5]: 5.04

SMILES: CC(=O)Oc1ccccc1C(=O)O [ASPIRIN]
- Inhibition % [7]: 64%
- Inhibition % [9]: 9%
- pIC50 [3]: 4.80
- pEC50 [5]: < 3.22
- ED50 [13]: 8.4 mg/kg
- Ulcer index [14]: 0.6
- Ulcer index [15]: 2.2
- Ulcer index [16]: 2
- Ulcer index [17]: 3.8

SMILES: CCOC(=O)/C(C#N)=C/c1nc(-c2ccc(OC)cc2)c(-c2ccc(OC)cc2)s1
- pIC50 [3]: > 8.00
- pEC50 [5]: < 4.00

SMILES: COc1ccc(-c2nc(C(F)(F)F)sc2-c2ccc(OC)cc2)cc1 [ITAZIGREL]
- Inhibition % [6]: 100%
- Inhibition % [8]: 100%
- Inhibition % [10]: 100%
- Inhibition % [11]: 79%
- pIC50 [3]: 8.25
- pEC50 [5]: < 3.52
- Ulcer index [18]: 1.4
- Ulcer index [19]: 0.4

SMILES: COc1ccc(-c2nc(CNC(=O)NC(C)C)sc2-c2ccc(OC)cc2)cc1
- inhibition in vivo at 3.2 mg/kg [20]: 100%
- inhibition in vivo at 1 mg/kg [10]: 100%
- inhibition in vivo at 1 mg/kg [11]: 100%
- inhibition in vivo at 3.2 mg/kg [2]: 100%
- pIC50 [3]: 7.38
- pEC50 [5]: 5.24

SMILES: CC/N=C(/N)Nc1nc(-c2ccc(OC)cc2)c(-c2ccc(OC)cc2)s1
- pIC50 [3]: < 7.00

SMILES: COc1ccc(-c2nc(/C=C/C(=O)O)sc2-c2ccc(OC)cc2)cc1
- pIC50 [3]: < 7.00
- pEC50 [5]: 4.26

SMILES: COc1ccc(-c2nc(N=C(N)N)sc2-c2ccc(OC)cc2)cc1
- pIC50 [3]: 4.51
- pEC50 [5]: 5.70

SMILES: CNC(=N)Nc1nc(-c2ccc(OC)cc2)c(-c2ccc(OC)cc2)s1
- Inhibition % [21]: 100%
- Inhibition % [22]: 100%
- Inhibition % [8]: 9%
- Inhibition % [9]: 76.2%
- pIC50 [3]: 7.21
- pEC50 [5]: 5.92

SMILES: C/N=C(/NC)Nc1nc(-c2ccc(OC)cc2)c(-c2ccc(OC)cc2)s1
- pIC50 [3]: 6.01

SMILES: Cc1cc(/N=C(\Nc2nccs2)NC2CCCCC2)c2ccccc2n1 [TIMEGADINE]
- Inhibition % [6]: 14.5%
- Inhibition % [7]: 52.4%
- pIC50 [3]: 7.51
- pEC50 [5]: 5.60

SMILES: CCOC(=O)/C=C/c1nc(-c2ccc(OC)cc2)c(-c2ccc(OC)cc2)s1
- pIC50 [3]: 7.70
- pEC50 [5]: < 4.00

SMILES: COc1ccc(-c2nc(C(=O)NCCc3cccnc3)sc2-c2ccc(OC)cc2)cc1
- pIC50 [3]: > 7.00
- Inhibition [4]: 56.6%
- pEC50 [5]: 4.70

SMILES: COc1ccc(-c2nc(C3=CCN(C)CC3)sc2-c2ccc(OC)cc2)cc1
- inhibition in vivo at 3.2 mg/kg [1]: 100%
- inhibition in vivo at 3.2 mg/kg [2]: 69.3%
- pIC50 [3]: > 8.00
- pEC50 [5]: 5.23

SMILES: COc1ccc(-c2nc(CCC(=O)O)sc2-c2ccc(OC)cc2)cc1
- pIC50 [3]: > 7.00
- pEC50 [5]: < 4.00

SMILES: CCN(CC)C(=O)c1nc(-c2ccc(OC)cc2)c(-c2ccc(OC)cc2)s1
- pIC50 [3]: > 8.00
- Inhibition [12]: 65%
- pEC50 [5]: 4.85

SMILES: CCOC(=O)C1=C(C)N=C(C)/C(=C(/O)OCC)C1c1nc(-c2ccc(OC)cc2)c(-c2ccc(OC)cc2)s1 (stereo unspecified)
- pIC50 [3]: > 7.00
- pEC50 [5]: < 4.49

SMILES: COc1ccc(-c2nc(CNC(=O)CSc3ccccc3)sc2-c2ccc(OC)cc2)cc1
- inhibition in vivo at 1 mg/kg [10]: 16.5%
- inhibition in vivo at 1 mg/kg [11]: -2.6%
- pIC50 [3]: > 7.00
- Inhibition [4]: 73.6%
- pEC50 [5]: 5.38

SMILES: COc1ccc(-c2nc(CNC(=O)N3CCOCC3)sc2-c2ccc(OC)cc2)cc1
- pIC50 [3]: 6.18
- pEC50 [5]: 4.92

SMILES: COc1ccc(-c2nc(CNC(=O)C3=NNC(=O)CC3)sc2-c2ccc(OC)cc2)cc1
- inhibition in vivo at 1 mg/kg [10]: 100%
- inhibition in vivo at 3.2 mg/kg [1]: 100%
- inhibition in vivo at 1 mg/kg [11]: 84.3%
- inhibition in vivo at 3.2 mg/kg [2]: 94.1%
- pIC50 [3]: 7.26
